Results on 20 compounds are retold here after patent publication US10077241B2 (Janssen Pharmaceutica NV, priority 2014, dated 2018).

Molecules are shown by their SMILES. Where a name gives a salt, the structure may show the parent alone.

One assay addresses T1, TGR5 (STC1 cell line) (Mus musculus, UniProt Q80SS6).
T1 sequence (Q80SS6 1-329): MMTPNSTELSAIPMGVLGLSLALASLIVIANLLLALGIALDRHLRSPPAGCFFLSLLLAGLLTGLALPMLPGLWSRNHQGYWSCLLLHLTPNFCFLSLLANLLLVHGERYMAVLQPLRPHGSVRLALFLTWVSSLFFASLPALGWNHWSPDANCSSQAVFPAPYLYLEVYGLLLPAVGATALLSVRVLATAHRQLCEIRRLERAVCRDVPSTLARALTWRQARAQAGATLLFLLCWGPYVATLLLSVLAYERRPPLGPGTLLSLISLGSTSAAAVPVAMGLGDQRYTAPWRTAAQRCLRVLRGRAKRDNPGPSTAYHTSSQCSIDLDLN
Put plainly: STC1 cAMP Agonist EC50 Determination.

The target in assay [1] is T2, TGR5 (NCI-H716 cell line) (Homo sapiens, UniProt Q8TDU6).
T2 sequence (Q8TDU6 1-330): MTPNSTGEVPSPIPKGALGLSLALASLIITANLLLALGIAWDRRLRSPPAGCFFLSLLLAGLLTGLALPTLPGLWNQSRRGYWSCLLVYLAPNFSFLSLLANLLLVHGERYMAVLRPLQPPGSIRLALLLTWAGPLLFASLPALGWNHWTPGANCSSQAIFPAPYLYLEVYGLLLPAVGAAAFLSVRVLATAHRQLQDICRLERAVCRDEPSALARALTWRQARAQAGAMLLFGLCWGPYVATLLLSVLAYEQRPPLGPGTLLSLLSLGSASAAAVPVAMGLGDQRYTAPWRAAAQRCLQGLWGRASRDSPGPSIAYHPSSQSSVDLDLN
Put plainly: NCI-H716 cAMP Agonist EC50 Determination.
Method: Cells were cultured in suspension using RPM containing: 10% HI FBS, and 1× Penn/Strep and were cryostored (1E7 cells/vial in 5% DMSO).
A Normalized signal (NS) is generated by the Envision for each well ((Read 1/Read 2)×10,000).
The data from the Envision were imported to an Excel worksheet. nM cAMP is calculated for each well from the cAMP standard curves located on each plate by first calculating the slope and deriving the intercept (b).
[formula] [formula] [formula] EC50 values were determined from a 4-point fit (Hill equation) of a single 11-point compound dosing.

Usually EC50 stands for the concentration at which the effect is half-maximal. High values mean a less potent agent, low ones a more potent agent.

Consider `COc1cc(C2CCCc3nc(SCc4c(F)cccc4Cl)n(-c4ccc(F)c(F)c4F)c32)ccc1Cl` (stereo not shown) [Example 9, 7-(4-chloro-3-methoxyphenyl)-2-((2-chloro-6-fluorobenzyl)thio)-1-(2,3,4-trifluorophenyl)-4,5,6,7-tetrahydro-1H-benzo[d]imidazole], for which the EC50 on TGR5 (STC1 cell line) is 9.86 µM; in assay [1] it was greater than 50 µM.

As to `COc1cc(C2CCCc3nc(SCc4c(F)cccc4Cl)n(-c4cc(F)c(F)c(F)c4)c32)ccc1Cl` (stereo not shown) [Example 10, 7-(4-chloro-3-methoxyphenyl)-2-((2-chloro-6-fluorobenzyl)thio)-1-(3,4,5-trifluorophenyl)-4,5,6,7-tetrahydro-1H-benzo[d]imidazole], the EC50 on TGR5 (STC1 cell line) was 0.79 µM; in assay [1], greater than 50 µM.

On to `COc1cc(C2CCCc3nc(SCc4c(F)cccc4Cl)n(-c4cc(F)c(F)cc4F)c32)ccc1Cl` (stereo not shown) [Example 11, 7-(4-chloro-3-methoxyphenyl)-2-((2-chloro-6-fluorobenzyl)thio)-1-(2,4,5-trifluorophenyl)-4,5,6,7-tetrahydro-1H-benzo[d]imidazole], for which the EC50 was 3.71 µM at TGR5 (STC1 cell line) and greater than 50 µM in assay [1].

As to `COc1cc(C2CCCc3nc(SCc4c(F)cc(C(=O)O)cc4F)n(-c4ccc(F)cc4)c32)ccc1Cl` (stereo not shown) [Example 12, 4-((7-(4-chloro-3-methoxyphenyl)-1-(4-fluorophenyl)-4,5,6,7-tetrahydro-1H-benzo[d]imidazol-2-ylthio)methyl)-3,5-difluorobenzoic acid trifluoroacetic acid], the EC50 at TGR5 (STC1 cell line) was 19.7 µM; in assay [1] it was greater than 50 µM.

Take `COc1cc(C2CCCc3nc(SCc4c(F)cc(C(=O)NCC[N+](C)(C)C)cc4F)n(-c4ccc(F)cc4)c32)ccc1Cl` (stereo not shown) [Example 13, 2-(4-((7-(4-chloro-3-methoxyphenyl)-1-(4-fluorophenyl)-4,5,6,7-tetrahydro-1H-benzo[d]imidazol-2-ylthio)methyl)-3,5-difluorobenzamido)-N,N,N-trimethylethanaminium 2,2,2-trifluoroacetate]: the figures for the EC50 (at TGR5 (STC1 cell line); in assay [1]) were 8.04 µM and greater than 50 µM, respectively.

Regarding `COc1cc(C2CCCc3nc(SCc4c(F)cccc4C#N)n(-c4ccc(F)cc4)c32)ccc1Cl` (stereo not shown) [Example 14, 2-([[7-(4-chloro-3-methoxyphenyl)-1-(4-fluorophenyl)-4,5,6,7-tetrahydro-1H-1,3-benzodiazol-2-yl]sulfanyl]methyl)-3-fluorobenzonitrile], the EC50 at TGR5 (STC1 cell line) was 0.53 µM; in assay [1] it was greater than 50 µM.

As to `COc1cc(C2CCCc3nc(SCc4c(F)cccc4C(F)(F)F)n(-c4ccc(F)cc4)c32)ccc1Cl` (stereo not shown) [Example 15, 7-(4-chloro-3-methoxyphenyl)-2-([[2-fluoro-6-(trifluoromethyl)phenyl]methyl]sulfanyl)-1-(4-fluorophenyl)-4,5,6,7-tetrahydro-1H-1,3-benzodiazole], the concentration giving a half-maximal response (EC50) is 13.3 µM on TGR5 (STC1 cell line) and greater than 50 µM in assay [1].

As to `COc1cc(C2CCCc3nc(SCc4c(F)ccc(F)c4Cl)n(-c4ccc(F)cc4)c32)ccc1Cl` (stereo not shown) [Example 20, 2-[[(2-chloro-3,6-difluorophenyl)methyl]sulfanyl]-7-(4-chloro-3-methoxyphenyl)-1-(4-fluorophenyl)-4,5,6,7-tetrahydro-1H-1,3-benzodiazole], the EC50 is 0.51 µM on TGR5 (STC1 cell line) and greater than 50 µM in assay [1].

Consider `COc1cc(C2CCCc3nc(SCc4c(F)cc(S(N)(=O)=O)cc4F)n(-c4ccc(F)cc4)c32)ccc1Cl` (stereo not shown) [Example 21a, 4-((7-(4-chloro-3-methoxyphenyl)-1-(4-fluorophenyl)-4,5,6,7-tetrahydro-1H-benzo[d]imidazol-2-ylthio)methyl)-3,5-difluorobenzenesulfonamide], for which the EC50 at TGR5 (STC1 cell line) stood at 0.69 µM; in assay [1], 48.4 µM.

Consider `COc1cc(C2CCCc3nc(SCc4c(F)cc(S(=O)(=O)NS(C)(=O)=O)cc4F)n(-c4ccc(F)cc4)c32)ccc1Cl` (stereo not shown) [Example 21b, 4-((7-(4-chloro-3-methoxyphenyl)-1-(4-fluorophenyl)-4,5,6,7-tetrahydro-1H-benzo[d]imidazol-2-ylthio)methyl)-3,5-difluoro-N-(methylsulfonyl)benzenesulfonamide], for which the EC50 on TGR5 (STC1 cell line) is 8.12 µM; in assay [1], greater than 50 µM.

Regarding `COc1cc(C2CCCc3nc(SCc4c(F)cc(S(=O)(=O)NCCC[N+](C)(C)C)cc4F)n(-c4ccc(F)cc4)c32)ccc1Cl` (stereo not shown) [Example 22, 3-(4-((7-(4-chloro-3-methoxyphenyl)-1-(4-fluorophenyl)-4,5,6,7-tetrahydro-1H-benzo[d]imidazol-2-ylthio)methyl)-3,5-difluorophenylsulfonamido)-N,N,N-trimethylpropan-1-aminium 2,2,2-trifluoroacetate], the figures for the EC50 (at TGR5 (STC1 cell line); in assay [1]) were 32.6 µM and greater than 50 µM, respectively.

Consider `COc1cc(C2CCCc3nc(SCc4c(F)cc(OCCOCCOCCOCCO)cc4F)n(-c4ccc(F)cc4)c32)ccc1Cl` (stereo not shown) [Example 23, 1-[4-([[7-(4-chloro-3-methoxyphenyl)-1-(4-fluorophenyl)-4,5,6,7-tetrahydro-1H-1,3-benzodiazol-2-yl]sulfanyl]methyl)-3,5-difluorophenyl]-1,4,7,10-tetraoxadodecan-12-ol], for which the EC50 is 0.66 µM at TGR5 (STC1 cell line) and greater than 50 µM in assay [1].

Regarding `COc1cc(C2CCCc3nc(SCc4c(F)cc(OCCN(C)C)cc4F)n(-c4ccc(F)cc4)c32)ccc1Cl` (stereo not shown) [Example 24, 2-(4-((7-(4-chloro-3-methoxyphenyl)-1-(4-fluorophenyl)-4,5,6,7-tetrahydro-1H-benzo[d]imidazol-2-ylthio)methyl)-3,5-difluorophenoxy)-N,N-dimethylethanamine Trifluoromethylacetic acid salt], the EC50 at TGR5 (STC1 cell line) was 3.92 µM; in assay [1], greater than 50 µM.

Regarding `COc1cc(C2CCCc3nc(SCc4c(F)cc(OCc5nnn[nH]5)cc4F)n(-c4ccc(F)cc4)c32)ccc1Cl` (stereo not shown) [Example 30, 7-(4-chloro-3-methoxyphenyl)-2-([[2,6-difluoro-4-(1H-1,2,3,4-tetrazol-5-ylmethoxy)phenyl]methyl]sulfanyl)-1-(4-fluorophenyl)-4,5,6,7-tetrahydro-1H-1,3-benzodiazole], the EC50 on TGR5 (STC1 cell line) was 0.96 µM; in assay [1], greater than 50 µM.

With `COc1cc(C2CCCc3nc(SCc4c(F)ccc(OCCN(C)C)c4F)n(-c4ccc(F)cc4)c32)ccc1Cl` (stereo not shown) [Example 31, [2-[3-([[17-(4-chloro-3-methoxyphenyl)-1-(4-fluorophenyl)-4,5,6,7-tetrahydro-1H-1,3-benzodiazol-2-yl]sulfanyl]methyl)-2,4-difluorophenoxy]ethyl]dimethylamine], the EC50 came to 4.1 µM at TGR5 (STC1 cell line) and 4.44 µM in assay [1].

As for `COc1cc(C2CCCc3nc(SCc4c(F)ccc(OCCOCCOCCN(C)C)c4F)n(-c4ccc(F)cc4)c32)ccc1Cl` (stereo not shown) [Example 32, 7-(4-chloro-3-methoxyphenyl)-2-([[3-(2-[2-[2-(dimethylamino)ethoxy]ethoxy]ethoxy)-2,6-difluorophenyl]methyl]sulfanyl)-1-(4-fluorophenyl)-4,5,6,7-tetrahydro-1H-1,3-benzodiazole hydrochloride], the EC50 turned out to be 1.38 µM on TGR5 (STC1 cell line) and 16.9 µM in assay [1].

Take `COc1cc(C2CCCc3nc(SCc4c(F)cc(OCCOCCOCCN(C)C)cc4F)n(-c4ccc(F)cc4)c32)ccc1Cl` (stereo not shown) [Example 33, 2-(2-(2-(4-((7-(4-chloro-3-methoxyphenyl)-1-(4-fluorophenyl)-4,5,6,7-tetrahydro-1H-benzo[d]imidazol-2-ylthio)methyl)-3,5-difluorophenoxy)ethoxy)ethoxy)-N,N-dimethylethanamine hydrochloride]: the EC50 on TGR5 (STC1 cell line) is 4.9 µM; in assay [1] it was greater than 50 µM.

Regarding `COc1cc(C2CCCc3nc(SCc4c(F)cc(OCCOCCN(C)C)cc4F)n(-c4ccc(F)cc4)c32)ccc1Cl` (stereo not shown) [Example 34, (2-[2-[4-([[7-(4-chloro-3-methoxyphenyl)-1-(4-fluorophenyl)-4,5,6,7-tetrahydro-1H-1,3-benzodiazol-2-yl]sulfanyl]methyl)-3,5-difluorophenoxy]ethoxy]ethyl)dimethylamine hydrochloride], the EC50 at TGR5 (STC1 cell line) is 3.9 µM; in assay [1], greater than 50 µM.

In the case of `COc1cc(C2CCCc3nc(SCc4c(F)ccc(OCCOCCN(C)C)c4F)n(-c4ccc(F)cc4)c32)ccc1Cl` (stereo not shown) [Example 35, (2-[2-[3-([[7-(4-chloro-3-methoxyphenyl)-1-(4-fluorophenyl)-4,5,6,7-tetrahydro-1H-1,3-benzodiazol-2-yl]sulfanyl]methyl)-2,4-difluorophenoxy]ethoxy]ethyl)dimethylamine hydrochloride], the EC50 came to 3.15 µM on TGR5 (STC1 cell line) and 9.3 µM in assay [1].

Regarding `COc1cc(C2CCCc3nc(SCc4c(F)cc(C#N)cc4F)n(-c4ccc(F)cc4)c32)ccc1Cl` (stereo not shown) [Example 36, 4-([[7-(4-chloro-3-methoxyphenyl)-1-(4-fluorophenyl)-4,5,6,7-tetrahydro-1H-1,3-benzodiazol-2-yl]sulfanyl]methyl)-3,5-difluorobenzonitrile], the EC50 was 1.34 µM at TGR5 (STC1 cell line) and greater than 50 µM in assay [1].
